{"source": "paper PMC12439760", "about": "(Bioorganic & medicinal chemistry, 2025)", "key": {"hCB1 receptor": {"target": "hCB1 receptor (Homo sapiens, UniProt P21554)", "sequence (P21554 whole entry)": "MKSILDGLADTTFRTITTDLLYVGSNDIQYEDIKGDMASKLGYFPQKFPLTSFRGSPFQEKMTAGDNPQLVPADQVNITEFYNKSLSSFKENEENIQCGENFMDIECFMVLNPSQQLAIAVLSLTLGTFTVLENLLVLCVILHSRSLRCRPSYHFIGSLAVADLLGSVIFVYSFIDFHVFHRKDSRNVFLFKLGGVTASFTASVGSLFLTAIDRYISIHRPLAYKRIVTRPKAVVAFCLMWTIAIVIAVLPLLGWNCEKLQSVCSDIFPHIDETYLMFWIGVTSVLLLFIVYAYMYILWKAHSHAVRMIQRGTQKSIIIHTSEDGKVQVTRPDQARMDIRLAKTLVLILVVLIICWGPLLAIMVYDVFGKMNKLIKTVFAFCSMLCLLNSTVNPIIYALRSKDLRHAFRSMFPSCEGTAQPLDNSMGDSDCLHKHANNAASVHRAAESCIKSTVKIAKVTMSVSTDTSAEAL", "test": "hCB1 Gαq16-coupled calcium mobilization assay in CHO-K1 cells", "assay_type": "cell-based", "settings": "for EC50: hCB1 Ca EC50, CHO cells expressing hCB1 and Gαq16, calcium mobilization"}, "hCB2 receptor": {"target": "hCB2 receptor (Homo sapiens, UniProt P34972)", "sequence (P34972 whole entry)": "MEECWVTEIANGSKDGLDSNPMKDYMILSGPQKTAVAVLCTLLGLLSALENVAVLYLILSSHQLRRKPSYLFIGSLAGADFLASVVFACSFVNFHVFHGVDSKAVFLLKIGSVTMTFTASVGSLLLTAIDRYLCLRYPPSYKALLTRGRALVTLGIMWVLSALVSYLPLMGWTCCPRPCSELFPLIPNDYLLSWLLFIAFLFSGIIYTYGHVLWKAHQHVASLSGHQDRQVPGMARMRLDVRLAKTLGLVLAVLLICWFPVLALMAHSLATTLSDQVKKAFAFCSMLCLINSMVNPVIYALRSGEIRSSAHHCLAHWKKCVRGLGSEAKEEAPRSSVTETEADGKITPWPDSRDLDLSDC", "test": "hCB2 Gαq16-coupled calcium mobilization assay in CHO-K1 cells", "assay_type": "cell-based", "settings": "hCB2 Ca EC50, CHO cells expressing hCB2 and Gαq16, calcium mobilization"}}, "note": "Several values for one entry are separate records, joined by “and”; a condition that tells them apart may be missing. Equal values may be shown once."}
{"smiles": "NC(=O)CN1CCC[C@@H](NC(=O)c2nn(Cc3ccc(F)cc3)c3ccccc23)C1", "note": "[Compound 41, N-[(3R)-1-(Carbamoylmethyl)piperidin-3-yl]-1-[(4-fluorophenyl)methyl]-1H-indazole-3-carboxamide]", "values": [{"measurement": "EC50", "setting": "hCB1 receptor", "result": "803 ± 73", "unit": "nM"}, {"measurement": "EC50", "setting": "hCB2 receptor", "result": "33 ± 1", "unit": "nM"}]}
{"smiles": "CC(C)(C#N)CCCn1nc(C(=O)NC(C)(C)c2cccc(C(N)=O)c2)c2ccccc21", "note": "[Compound 57, N-[2-(3-Carbamoylphenyl)propan-2-yl]-1-(4-cyano-4,4-dimethylbutyl)-1H-indazole-3-carboxamide]", "values": [{"measurement": "EC50", "setting": "hCB1 receptor", "result": "742 ± 50", "unit": "nM"}, {"measurement": "EC50", "setting": "hCB2 receptor", "result": "> 10000", "unit": "nM"}]}
{"smiles": "CC(C)(NC(=O)c1nn(CCc2ccc(F)cc2)c2ccccc12)c1cccc(C(N)=O)c1", "note": "[Compound 46, N-[2-(3-Carbamoylphenyl)propan-2-yl]-1-[2-(4-fluorophenyl)ethyl]-1H-indazole-3-carboxamide]", "values": [{"measurement": "EC50", "setting": "hCB1 receptor", "result": "> 10000", "unit": "nM"}, {"measurement": "EC50", "setting": "hCB2 receptor", "result": "> 10000", "unit": "nM"}]}
{"smiles": "CN(CC(N)=O)C(=O)C(C)(C)NC(=O)c1nn(Cc2ccc(F)cc2)c2ccccc12", "note": "[Compound 13, N-(Carbamoylmethyl)-2-({1-[(4-fluorophenyl)methyl]-1H-indazol-3-yl}formamido)-N,2-dimethylpropanamide]", "values": [{"measurement": "EC50", "setting": "hCB1 receptor", "result": "282 ± 73", "unit": "nM"}, {"measurement": "EC50", "setting": "hCB2 receptor", "result": "74 ± 19", "unit": "nM"}]}
{"smiles": "NC(=O)CN1CCC[C@H](CNC(=O)c2nn(Cc3ccc(F)cc3)c3ccccc23)C1", "note": "[Compound 33, N-{[(3R)-1-(Carbamoylmethyl)piperidin-3-yl]methyl}-1-[(4-fluorophenyl)methyl]-1H-indazole-3-carboxamide]", "values": [{"measurement": "EC50", "setting": "hCB1 receptor", "result": "239 ± 76", "unit": "nM"}, {"measurement": "EC50", "setting": "hCB2 receptor", "result": "170 ± 24", "unit": "nM"}]}
{"smiles": "CC(C)[C@H](NC(=O)c1nn(Cc2ccc(F)cc2)c2ccccc12)C(=O)O", "note": "[Compound 5, (2S)-2-({1-[(4-Fluorophenyl)methyl]-1H-indazol-3-yl}formamido)-3-methylbutanoic Acid]", "values": [{"measurement": "EC50", "setting": "hCB1 receptor", "result": "5550 ± 435", "unit": "nM"}, {"measurement": "EC50", "setting": "hCB2 receptor", "result": "516 ± 19", "unit": "nM"}]}
{"smiles": "CC(C)(NC(=O)c1nn(CCC2CCCC2)c2ccccc12)c1cccc(C(N)=O)c1", "note": "[Compound 49, N-[2-(3-Carbamoylphenyl)propan-2-yl]-1-(2-cyclopentylethyl)-1H-indazole-3-carboxamide]", "values": [{"measurement": "EC50", "setting": "hCB1 receptor", "result": "383 ± 163", "unit": "nM"}, {"measurement": "EC50", "setting": "hCB2 receptor", "result": "189 ± 10", "unit": "nM"}]}
{"smiles": "COCCCn1nc(C(=O)NC(C)(C)c2cccc(C(N)=O)c2)c2ccccc21", "note": "[Compound 59, N-[2-(3-Carbamoylphenyl)propan-2-yl]-1-(3-methoxypropyl)-1H-indazole-3-carboxamide]", "values": [{"measurement": "EC50", "setting": "hCB1 receptor", "result": "> 10000", "unit": "nM"}, {"measurement": "EC50", "setting": "hCB2 receptor", "result": "2560 ± 492", "unit": "nM"}]}
{"smiles": "NC(=O)[C@@H]1CCCN1C(=O)C1(NC(=O)c2nn(Cc3ccc(F)cc3)c3ccccc23)CC1", "note": "[Compound 16, N-{1-[(2S)-2-Carbamoylpyrrolidine-1-carbonyl]cyclopropyl}-1-[(4-fluorophenyl)methyl]-1H-indazole-3-carboxamide]", "values": [{"measurement": "EC50", "setting": "hCB1 receptor", "result": "168 ± 13", "unit": "nM"}, {"measurement": "EC50", "setting": "hCB2 receptor", "result": "190 ± 88", "unit": "nM"}]}
{"smiles": "NC(=O)[C@H](Cc1ccccc1)NC(=O)c1nn(Cc2ccc(F)cc2)c2ccccc12", "note": "[Compound 8, (2S)-2-({1-[(4-Fluorophenyl)methyl]-1H-indazol-3-yl}formamido)-3-phenylpropanamide]", "values": [{"measurement": "EC50", "setting": "hCB1 receptor", "result": "337 ± 33", "unit": "nM"}, {"measurement": "EC50", "setting": "hCB2 receptor", "result": "59 ± 7", "unit": "nM"}]}
{"smiles": "CNC(=O)[C@@H](NC(=O)c1nn(Cc2ccc(F)cc2)c2ccccc12)C(C)C", "note": "[Compound 6, (2S)-2-({1-[(4-Fluorophenyl)methyl]-1H-indazol-3-yl}formamido)-N,3-dimethylbutanamide]", "values": [{"measurement": "EC50", "setting": "hCB1 receptor", "result": "12 ± 2", "unit": "nM"}, {"measurement": "EC50", "setting": "hCB2 receptor", "result": "30 ± 1", "unit": "nM"}]}
{"smiles": "NC(=O)c1ccc(CNC(=O)c2nn(Cc3ccc(F)cc3)c3ccccc23)cc1", "note": "[Compound 21, N-[(4-Carbamoylphenyl)methyl]-1-[(4-fluorophenyl)methyl]-1H-indazole-3-carboxamide]", "values": [{"measurement": "EC50", "setting": "hCB1 receptor", "result": "> 10000", "unit": "nM"}, {"measurement": "EC50", "setting": "hCB2 receptor", "result": "1380 ± 149", "unit": "nM"}]}
{"smiles": "O=C(NCC1CCCCC1)c1nn(Cc2ccc(F)cc2)c2ccccc12", "note": "[Compound 28, N-(Cyclohexylmethyl)-1-[(4-fluorophenyl)methyl]-1H-indazole-3-carboxamide]", "values": [{"measurement": "EC50", "setting": "hCB1 receptor", "result": "17 ± 1", "unit": "nM"}, {"measurement": "EC50", "setting": "hCB2 receptor", "result": "28 ± 8", "unit": "nM"}]}
{"smiles": "NC(=O)CN1CCC[C@H](NC(=O)c2nn(Cc3ccc(F)cc3)c3ccccc23)C1", "note": "[Compound 40, N-[(3S)-1-(Carbamoylmethyl)piperidin-3-yl]-1-[(4-fluorophenyl)methyl]-1H-indazole-3-carboxamide]", "values": [{"measurement": "EC50", "setting": "hCB1 receptor", "result": "36 ± 14", "unit": "nM"}, {"measurement": "EC50", "setting": "hCB2 receptor", "result": "22 ± 1", "unit": "nM"}]}
{"smiles": "NC(=O)N1CCC[C@H](NC(=O)c2nn(Cc3ccc(F)cc3)c3ccccc23)C1", "note": "[Compound 38, N-[(3S)-1-Carbamoylpiperidin-3-yl]-1-[(4-fluorophenyl)methyl]-1H-indazole-3-carboxamide]", "values": [{"measurement": "EC50", "setting": "hCB1 receptor", "result": "541 ± 52", "unit": "nM"}, {"measurement": "EC50", "setting": "hCB2 receptor", "result": "59 ± 1", "unit": "nM"}]}
{"smiles": "CC(C)(NC(=O)c1nn(Cc2ccc(F)cc2)c2ccccc12)C(=O)N1CCC[C@@H]1C(N)=O", "note": "[Compound 15, N-{1-[(2R)-2-Carbamoylpyrrolidin-1-yl]-2-methyl-1-oxopropan-2-yl}-1-[(4-fluorophenyl)methyl]-1H-indazole-3-carboxamide]", "values": [{"measurement": "EC50", "setting": "hCB1 receptor", "result": "> 10000", "unit": "nM"}, {"measurement": "EC50", "setting": "hCB2 receptor", "result": "> 10000", "unit": "nM"}]}
{"smiles": "CC(C)(CN1CCC[C@H]1C(N)=O)NC(=O)c1nn(Cc2ccc(F)cc2)c2ccccc12", "note": "[Compound 17, N-{1-[(2S)-2-Carbamoylpyrrolidin-1-yl]-2-methylpropan-2-yl}-1-[(4-fluorophenyl)methyl]-1H-indazole-3-carboxamide]", "values": [{"measurement": "EC50", "setting": "hCB1 receptor", "result": "32 ± 15", "unit": "nM"}, {"measurement": "EC50", "setting": "hCB2 receptor", "result": "101 ± 34", "unit": "nM"}]}
{"smiles": "CC(C)(NC(=O)c1nn(Cc2ccc(F)cc2)c2ccccc12)C1CCN(C(N)=O)CC1", "note": "[Compound 36, N-[2-(1-Carbamoylpiperidin-4-yl)propan-2-yl]-1-[(4-fluorophenyl)methyl]-1H-indazole-3-carboxamide]", "values": [{"measurement": "EC50", "setting": "hCB1 receptor", "result": "2370 ± 452", "unit": "nM"}, {"measurement": "EC50", "setting": "hCB2 receptor", "result": "132 ± 49", "unit": "nM"}]}
{"smiles": "NC(=O)c1cccc(C2(NC(=O)c3nn(Cc4ccc(F)cc4)c4ccccc34)CC2)c1", "note": "[Compound 27, N-[1-(3-Carbamoylphenyl)cyclopropyl]-1-[(4-fluorophenyl)methyl]-1H-indazole-3-carboxamide]", "values": [{"measurement": "EC50", "setting": "hCB1 receptor", "result": "2740 ± 939", "unit": "nM"}, {"measurement": "EC50", "setting": "hCB2 receptor", "result": "96 ± 6", "unit": "nM"}]}
{"smiles": "NC(=O)CN1CCC[C@@H](CNC(=O)c2nn(Cc3ccc(F)cc3)c3ccccc23)C1", "note": "[Compound 32, N-{[(3S)-1-(Carbamoylmethyl)piperidin-3-yl]methyl}-1-[(4-fluorophenyl)methyl]-1H-indazole-3-carboxamide]", "values": [{"measurement": "EC50", "setting": "hCB1 receptor", "result": "168 ± 23", "unit": "nM"}, {"measurement": "EC50", "setting": "hCB2 receptor", "result": "150 ± 6", "unit": "nM"}]}
{"smiles": "NC(=O)c1ccccc1CNC(=O)c1nn(Cc2ccc(F)cc2)c2ccccc12", "note": "[Compound 19, N-[(2-Carbamoylphenyl)methyl]-1-[(4-fluorophenyl)methyl]-1H-indazole-3-carboxamide]", "values": [{"measurement": "EC50", "setting": "hCB1 receptor", "result": "423 ± 190", "unit": "nM"}, {"measurement": "EC50", "setting": "hCB2 receptor", "result": "52 ± 22", "unit": "nM"}]}
{"smiles": "O=C(NCc1ccc(F)cc1)c1nn(Cc2ccc(F)cc2)c2ccccc12", "note": "[Compound 18, N,1-Bis[(4-fluorophenyl)methyl]-1H-indazole-3-carboxamide]", "values": [{"measurement": "EC50", "setting": "hCB1 receptor", "result": "181 ± 20", "unit": "nM"}, {"measurement": "EC50", "setting": "hCB2 receptor", "result": "168 ± 24", "unit": "nM"}]}
{"smiles": "CC(C)(NC(=O)c1nn(Cc2ccc(F)cc2)c2ccccc12)C(N)=O", "note": "[Compound 10, 2-({1-[(4-Fluorophenyl)methyl]-1H-indazol-3-yl}formamido)-2-methylpropanamide]", "values": [{"measurement": "EC50", "setting": "hCB1 receptor", "result": "> 10000", "unit": "nM"}, {"measurement": "EC50", "setting": "hCB2 receptor", "result": "477 ± 142", "unit": "nM"}]}
{"smiles": "NC(=O)c1cccc(CNC(=O)c2nn(Cc3ccc(F)cc3)c3ccccc23)c1", "note": "[Compound 20, N-[(3-Carbamoylphenyl)methyl]-1-[(4-fluorophenyl)methyl]-1H-indazole-3-carboxamide]", "values": [{"measurement": "EC50", "setting": "hCB1 receptor", "result": "38 ± 14", "unit": "nM"}, {"measurement": "hCB1 Ca Emax", "setting": "hCB1 receptor; percentage of the maximum CP55,940 signal, CHO cells expressing hCB1 and Gαq16", "result": "104 ± 6", "unit": "%"}, {"measurement": "EC50", "setting": "hCB2 receptor", "result": "170 nM and 172 nM"}]}
{"smiles": "CCOCCn1nc(C(=O)NC(C)(C)c2cccc(C(N)=O)c2)c2ccccc21", "note": "[Compound 58, N-[2-(3-Carbamoylphenyl)propan-2-yl]-1-(2-ethoxyethyl)-1H-indazole-3-carboxamide]", "values": [{"measurement": "EC50", "setting": "hCB1 receptor", "result": "> 10000", "unit": "nM"}, {"measurement": "EC50", "setting": "hCB2 receptor", "result": "> 10000", "unit": "nM"}]}
